From patent US5372940A, “D-pantolactone hydrolase and process for the preparation thereof” (Fuji Yakuhin Kogyo Kabushiki Kaisha, priority 1990, dated 1994)

System: D-pantolactone hydrolase purified from Fusarium oxysporum (IFO 5942)
Assay: Substrate specificity (Km) and inhibition of purified D-pantolactone hydrolase
Type: biochemical
Conditions: for Km: purified enzyme, the compound is the substrate, read-out: Km (Michaelis constant)
Experimental: Fusarium oxysporum (IFO 5942) was inoculated into each of thirty 2l shake flasks each containing 500 ml of culture medium containing 5% sucrose, 0.4% sodium nitrate, 0.2% dipotassium monohydrogenphosphate, 0.05% magnesium sulfate, 0.05% potassium chloride, 0.001% ferric sulfate and 0.002% zinc sulfate (pH 6.0), and subjected to shaking culture at 28° C. for 7 days. The combined culture broths were centrifuged to give 800 g of wet mass of cells. The cells were triturated by means of a DYNO®-MILL with 2.5 l of 0.1 mM dithiothreitol-containing 20 mM Tris-HCl buffer (pH 7.4), and the mixture was centrifuged to give 2.3 l of cell-free extract. […] Furthermore, 572 g of potassium chloride were added to, and dissolved in, this cell-free extract and the mixture was loaded on an Octyl sepharose CL4B column (3×28 cm) and eluted with 3M potassium chloride. 2.4 l of eluted active fractions were dialyzed against 0.1 mM dithiothreitol-containing 20 mM Tris-HCl buffer (pH 7.4). The resultant 2.9 l of enzyme solution were loaded on a DEAE Sephacel column (5.5×34 cm) and eluted with a linear gradient of 0 to 0.5M potassium chloride. 255 ml of eluted active fractions were loaded on a hydroxyapatite column (5×10 cm) and eluted with a linear gradient of 0 to 0.88M potassium phosphate buffer (pH 7.0). 425 ml of eluted active fractions were subjected to ultrafiltration using an Amicon YM 10, and 115 ml of the resultant enzyme concentrate were dialyzed against 0.1 mM dithiothreitol-containing 20 mM Tris-HCl buffer (pH 7.4). 190 ml of the enzyme solution were subjected to ultrafiltration using an Amicon YM 30 and 14.5 ml of the resultant enzyme solution was loaded on a sephacryl S-300 column (2.5×95 cm) and eluted with 0.2M potassium chloride. 44.5 ml of eluted active fractions were dialyzed against 0.1 mM dithiothreitol-containing 20 mM Tris-HCl buffer (pH 7.4), then loaded on a Q sepharose Fast Flow column (1.8×3 cm) and eluted with a linear gradient of 0 to 1M potassium chloride. 7 ml of eluted active fractions were dialyzed against 0.1 mM dithiothreitol-containing 20 mM Tris-HCl buffer (pH 7.4) to obtain 6.8 ml of purified enzyme solution.
In determining enzyme activity, the enzyme activity which hydrolyzes 1 μmol of D-pantolactone in one minute under the conditions specified below was taken as one unit (U).
50 μl of enzyme solution were added to 200 μl of 10% D-pantolactone solution in 0.5M PIPES buffer (pH 7.0). After reaction at 30° C. for 120 minutes, 250 μl of 2 mM EDTA solution in methanol were added to stop the reaction. The resultant reaction mixture was subjected to HPLC (Nucleosil 5C18 4.6×150 mm; eluent 10% methanol; rate of flow 1 ml/min; detection wavelength 230 nm) to determine the % hydrolysis. For example, where the % hydrolysis is 1%, the enzyme activity/ml of enzyme solution corresponds to 1.6×10^-2 U/ml.
Values in parentheses are those for the activity of the respective metal ions at 2.5 mM concentration as measured with the activity value in the case of no addition of metal ions taken as 100.

O=C1O[C@@H]([C@H](O)CO)[C@H](O)[C@H]1O [D-galactonolactone]
Km: 3.6 mM

O=C1O[C@@H]([C@H](O)CO)[C@@H](O)[C@H]1O [D-gulonolactone]
Km: 29 mM

CC1(C)COC(=O)[C@@H]1O [D-pantolactone]
Km: 82 mM

O=C(O)CN(CCN(CC(=O)O)CC(=O)O)CC(=O)O [EDTA, reference compound]
Inhibition of enzyme activity (5 mM EDTA): inhibited completely

O=C1O[C@@H]([C@@H](O)CO)[C@@H](O)[C@H]1O [L-mannonolactone]
Km: 23 mM
